Data published in patent publication US9469652B2, “ERK inhibitors” (Eli Lilly and Company, priority 2014, dated 2016).

Legend:
[1] = tested on: human non-small cell lung cancer cells NCI-H2122 (KRAS_G12C); test: In vivo combination study, NCI-H2122 NSCLC xenograft model; design: species or system female athymic nude mice; settings: single agent
Protocol: (§1) More specifically, the compound of Example 1 is tested in combination with either the pan-RAF inhibitor compound or the CDK4/6 inhibitor compound in HCT116, a KRAS mutant colorectal cancer xenograft model. Also, the compound of Example 1 is tested in combination with either the CDK4/6 inhibitor compound or DC101 in NCI-H441, A549, and NCI-H2122, KRAS mutant non-small cell lung cancer (NSCLC) xenograft models.
(§2) Combination efficacy is also tested in three KRAS mutant NSCLC xenograft models including A549 (KRAS_G12S) in SCID mice as well as NCI-H441 (KRAS_G12V) and NCI-H2122 (KRAS_G12C) in athymic nude mice. Expand human non-small cell lung cancer cells NCI-H441 (ATCC, #CRL-5807) and NCI-H2122 (ATCC, #CRL-5985) in culture, harvest and inject 5×10e^6 cells in 200 μL of 1:1 HBSS+matrigel solution subcutaneously on to the rear right flank of female athymic nude mice (20-22 gm, Harlan Laboratories). Expand human non-small cell lung cancer cells A549 (ATCC, #CC1-185) in culture, harvest and inject 5×10e^6 cells in 200 μL of 1:1 HBSS+matrigel solution subcutaneously on to the rear right flank of female CB-17 SCID mice (18-20 gm, Taconic Farms). For all cell lines, measure tumor growth and body weight twice per week beginning the seventh day after the implantation. When average tumor sizes reach 200-300 mm^3, randomize animals and group into groups of five to seven animals. Prepare test compound in an appropriate vehicle (see below) and administer by oral gavage (compound of Example 1 and the CDK4/6 inhibitor compound) or intraperitoneally (DC101) for 21 to 28 days. Tumor response is determined by tumor volume measurement performed twice a week during the course of treatment. Vehicle used in these studies is 1% HEC/0.25% Tween® 80/0.05% Antifoam. The compound of Example 1 is formulated in 1% HEC/0.25% Tween® 80/0.05% Antifoam and the CDK4/6 inhibitor compound is formulated in 1% HEC in 25 mM sodium phosphate buffer, pH 2. […] In the same NCI-H441 xenograft model, DC101 in phosphate buffer is also administered intraperitoneally twice per week (BIW) as a single agent or in combination with the compound of Example 1, 50 mpk, QD for 28 days.

[2] = tested on: human non-small cell lung cancer cells A549 (KRAS_G12S); test: In vivo combination study, A549 NSCLC xenograft model; design: species or system female CB-17 SCID mice; settings: single agent
Protocol: as §1, §2

[3] = tested on: human colorectal cancer cells HCT116; test: In vivo combination study, HCT116 KRAS mutant colorectal cancer xenograft model; settings: oral, 28 days, single agent
Protocol: as §1
The HCT116 combination efficacy study is done in athymic nude rats. Expand human colorectal cancer cells HCT116 (ATCC, #CCL-247) in culture, harvest and inject 5×10e^6 cells in 200 μL of 1:1 HBSS+matrigel solution subcutaneously on to the rear right flank of female NIH nude rats (120-145 gm, Taconic Farms). Measure tumor growth and body weight twice per week beginning the seventh day after the implantation. When average tumor sizes reach 200-300 mm^3, randomize animals and group into groups of five to seven animals. Prepare test compound in an appropriate vehicle (see below) and administer by oral gavage for 21 to 28 days. Tumor response is determined by tumor volume measurement performed twice a week during the course of treatment. Vehicle used in this study is 1% HEC (hydroxy ethyl cellulose)/0.25% Tween® 80/0.05% Antifoam. The compound of Example 1 and the pan-RAF inhibitor compound are formulated in 1% HEC/0.25% Tween® 80/0.05% Antifoam. The CDK4/6 inhibitor compound is formulated in 1% HEC in 25 mM Sodium phosphate buffer, pH 2.

[4] = tested on: human non-small cell lung cancer cells NCI-H441 (KRAS_G12V); test: In vivo combination study, NCI-H441 NSCLC xenograft model; settings: single agent
Protocol: as §1, §2

SMILES | Delta T/C % ([1]; 50 mg/kg QD, oral, 28 days) [%] | tumor growth inhibition ([1]; 50 mpk) [%] | Delta T/C % ([2]; 50 mg/kg QD, oral, 28 days) [%] | tumor growth inhibition ([2]; 50 mpk) [%] | Delta T/C % ([3]; 20 mg/kg QD) [%] | TGI % ([3]; 20 mg/kg QD) [%] | Delta T/C % ([4]; 50 mg/kg QD, oral, 28 days) [%] | tumor growth inhibition ([4]; 50 mpk) [%] | Delta T/C % ([3]; 10 mg/kg BID) [%] | TGI % ([3]; 10 mg/kg BID) [%] | Delta T/C % ([3]; 20 mg/kg BID) [%] | TGI % ([3]; 20 mg/kg BID) [%]
CCN1CCN(Cc2ccc(Nc3ncc(F)c(-c4cc(F)c5nc(C)n(C(C)C)c5c4)n3)nc2)CC1 [CDK4/6 inhibitor, [5-(4-ethyl-piperazin-1-ylmethyl)-pyridin-2-yl]-[5-fluoro-4-(7-fluoro-3-isopropyl-2-methyl-3H-benzoimidazol-5-yl)-pyrimidin-2-yl]-amine, reference compound] | 47 | 53 | 49 | 51 | 24 | 76 | 19 | 81 | – | – | – | –
CNc1ncc2cc(-c3cc(NC(=O)NCCC(C)(C)C)c(F)cc3C)c(C)nc2n1 [pan-RAF inhibitor, 1-(3,3-dimethylbutyl)-3-(2-fluoro-4-methyl-5-(7-methyl-2-(methylamino)pyrido[2,3-d]pyrimidin-6-yl)phenyl)urea] | – | – | – | – | – | – | – | – | 71 | 29 | 32 | 68
